Data from the NIST ThermoML archive (doi:10.1021/acs.jced.8b00554).
Numbers after ± are expanded uncertainties.

Experiment: xn = mol fraction of the nth substance listed
Settings: Liquid, Vibrating tube method

CCCCCCCC [octane] + CCCO
Settings | mass density [kg/m3]
323.15 K, 10010 kPa, x2 = 0.3158 | 702.83 ± 4.5
323.15 K, 10010 kPa, x2 = 0.4411 | 711.7 ± 4.6
323.15 K, 10010 kPa, x2 = 0.8823 | 763.66 ± 4.9
323.15 K, 11000 kPa, x2 = 0.1631 | 695.13 ± 4.5
323.15 K, 11010 kPa, x2 = 0.2111 | 697.62 ± 4.5
323.15 K, 11010 kPa, x2 = 0.3158 | 703.75 ± 4.5
323.15 K, 11010 kPa, x2 = 0.4411 | 712.61 ± 4.6
323.15 K, 11010 kPa, x2 = 0.7301 | 741.5 ± 4.8
323.15 K, 11010 kPa, x2 = 0.8823 | 764.53 ± 4.9
323.15 K, 12000 kPa, x2 = 0.3158 | 704.66 ± 4.5
323.15 K, 12010 kPa, x2 = 0.7301 | 742.41 ± 4.8
323.15 K, 12010 kPa, x2 = 0.8823 | 765.37 ± 4.9
323.15 K, 12020 kPa, x2 = 0.1631 | 696.03 ± 4.5
323.15 K, 12020 kPa, x2 = 0.2111 | 698.52 ± 4.5
323.15 K, 12020 kPa, x2 = 0.4411 | 713.53 ± 4.6
323.15 K, 13000 kPa, x2 = 0.8823 | 766.25 ± 4.9
323.15 K, 13010 kPa, x2 = 0.2111 | 699.43 ± 4.5
323.15 K, 13010 kPa, x2 = 0.4411 | 714.42 ± 4.6
323.15 K, 13010 kPa, x2 = 0.7301 | 743.29 ± 4.8
323.15 K, 13020 kPa, x2 = 0.1631 | 696.94 ± 4.5
323.15 K, 13020 kPa, x2 = 0.3158 | 705.56 ± 4.5
323.15 K, 14010 kPa, x2 = 0.1631 | 697.82 ± 4.5
323.15 K, 14010 kPa, x2 = 0.2111 | 700.32 ± 4.5
323.15 K, 14010 kPa, x2 = 0.3158 | 706.45 ± 4.5
323.15 K, 14010 kPa, x2 = 0.4411 | 715.31 ± 4.6
323.15 K, 14010 kPa, x2 = 0.8823 | 767.11 ± 4.9
323.15 K, 14020 kPa, x2 = 0.7301 | 744.18 ± 4.8
323.15 K, 15000 kPa, x2 = 0.7301 | 745.04 ± 4.8
323.15 K, 15000 kPa, x2 = 0.8823 | 767.94 ± 4.9
323.15 K, 15010 kPa, x2 = 0.1631 | 698.72 ± 4.5
323.15 K, 15010 kPa, x2 = 0.2111 | 701.21 ± 4.5
323.15 K, 15020 kPa, x2 = 0.3158 | 707.35 ± 4.5
323.15 K, 15020 kPa, x2 = 0.4411 | 716.17 ± 4.6
323.15 K, 16000 kPa, x2 = 0.3158 | 708.22 ± 4.5
323.15 K, 16000 kPa, x2 = 0.7301 | 745.87 ± 4.8
323.15 K, 16010 kPa, x2 = 0.1631 | 699.58 ± 4.5
323.15 K, 16010 kPa, x2 = 0.4411 | 717.04 ± 4.6
323.15 K, 16010 kPa, x2 = 0.8823 | 768.77 ± 4.9
323.15 K, 16020 kPa, x2 = 0.2111 | 702.08 ± 4.5
323.15 K, 17000 kPa, x2 = 0.1631 | 700.41 ± 4.5
323.15 K, 17010 kPa, x2 = 0.2111 | 702.95 ± 4.5
323.15 K, 17010 kPa, x2 = 0.3158 | 709.05 ± 4.5
323.15 K, 17010 kPa, x2 = 0.4411 | 717.88 ± 4.6
323.15 K, 17020 kPa, x2 = 0.7301 | 746.73 ± 4.8
323.15 K, 17020 kPa, x2 = 0.8823 | 769.6 ± 4.9
323.15 K, 18000 kPa, x2 = 0.1631 | 701.27 ± 4.5
323.15 K, 18000 kPa, x2 = 0.2111 | 703.77 ± 4.5
323.15 K, 18010 kPa, x2 = 0.3158 | 709.93 ± 4.5
323.15 K, 18010 kPa, x2 = 0.4411 | 718.73 ± 4.6
323.15 K, 18010 kPa, x2 = 0.7301 | 747.56 ± 4.8
323.15 K, 18010 kPa, x2 = 0.8823 | 770.4 ± 4.9
323.15 K, 19010 kPa, x2 = 0.1631 | 702.08 ± 4.5
323.15 K, 19010 kPa, x2 = 0.2111 | 704.61 ± 4.5
323.15 K, 19010 kPa, x2 = 0.3158 | 710.75 ± 4.6
323.15 K, 19010 kPa, x2 = 0.4411 | 719.58 ± 4.6
323.15 K, 19010 kPa, x2 = 0.7301 | 748.4 ± 4.8
323.15 K, 19020 kPa, x2 = 0.8823 | 771.2 ± 4.9
323.15 K, 20010 kPa, x2 = 0.1631 | 702.9 ± 4.5
323.15 K, 20010 kPa, x2 = 0.2111 | 705.43 ± 4.5
323.15 K, 20010 kPa, x2 = 0.4411 | 720.41 ± 4.6
323.15 K, 20010 kPa, x2 = 0.7301 | 749.2 ± 4.8
323.15 K, 20010 kPa, x2 = 0.8823 | 772.02 ± 5
323.15 K, 20020 kPa, x2 = 0.3158 | 711.56 ± 4.6
333.15 K, 100 kPa, x2 = 0.1631 | 675.2 ± 4.3
333.15 K, 100 kPa, x2 = 0.2111 | 677.49 ± 4.3
333.15 K, 100 kPa, x2 = 0.3158 | 683.44 ± 4.4
333.15 K, 100 kPa, x2 = 0.4411 | 692.56 ± 4.4
333.15 K, 100 kPa, x2 = 0.7301 | 721.13 ± 4.6
333.15 K, 100 kPa, x2 = 0.8823 | 744.98 ± 4.8
333.15 K, 1000 kPa, x2 = 0.2111 | 678.54 ± 4.3
333.15 K, 1000 kPa, x2 = 0.3158 | 684.58 ± 4.4
333.15 K, 1010 kPa, x2 = 0.1631 | 676.35 ± 4.3
333.15 K, 1010 kPa, x2 = 0.4411 | 694.32 ± 4.5
333.15 K, 1010 kPa, x2 = 0.8823 | 745.82 ± 4.8
333.15 K, 1020 kPa, x2 = 0.7301 | 722.21 ± 4.6
333.15 K, 2010 kPa, x2 = 0.1631 | 677.44 ± 4.3
333.15 K, 2010 kPa, x2 = 0.2111 | 679.63 ± 4.3
333.15 K, 2010 kPa, x2 = 0.3158 | 685.64 ± 4.4
333.15 K, 2010 kPa, x2 = 0.4411 | 695.36 ± 4.5
333.15 K, 2010 kPa, x2 = 0.7301 | 723.26 ± 4.6
333.15 K, 2010 kPa, x2 = 0.8823 | 746.82 ± 4.8
333.15 K, 3000 kPa, x2 = 0.2111 | 680.7 ± 4.4
333.15 K, 3000 kPa, x2 = 0.3158 | 686.7 ± 4.4
333.15 K, 3010 kPa, x2 = 0.1631 | 678.49 ± 4.3
333.15 K, 3010 kPa, x2 = 0.7301 | 724.3 ± 4.6
333.15 K, 3020 kPa, x2 = 0.4411 | 696.43 ± 4.5
333.15 K, 3020 kPa, x2 = 0.8823 | 747.84 ± 4.8
333.15 K, 4000 kPa, x2 = 0.3158 | 687.78 ± 4.4
333.15 K, 4000 kPa, x2 = 0.4411 | 697.47 ± 4.5
333.15 K, 4000 kPa, x2 = 0.7301 | 725.32 ± 4.7
333.15 K, 4010 kPa, x2 = 0.2111 | 681.76 ± 4.4
333.15 K, 4010 kPa, x2 = 0.8823 | 748.84 ± 4.8
333.15 K, 4020 kPa, x2 = 0.1631 | 679.56 ± 4.3
333.15 K, 5000 kPa, x2 = 0.8823 | 749.83 ± 4.8
